{"source": "ChEMBL document CHEMBL1138392", "about": "“Phenylalanyl-aminocyclophosphamides as model prodrugs for proteolytic activation: synthesis, stability, and stereochemical requirements for enzymatic cleavage” (Bioorg Med Chem Lett, 2007)", "key": {"[1]": {"test": "Stability in phosphate buffer assessed as hydrolysis at pH 7.4 after 3 days", "type": "physicochemical", "conditions": "read-out: Activity; call rule not given here"}, "[2]": {"test": "Stability in presence of alpha-chymotrypsin at 100 mM after 12 hrs", "type": "ADME", "conditions": "100000 µM"}, "[3]": {"test": "Stability assessed as hydrolysis half life in presence of alpha-chymotrypsin", "type": "ADME"}}}
{"smiles": "N[C@@H](Cc1ccccc1)C(=O)N[C@H]1CCOP(=O)(N(CCCl)CCCl)N1", "note": "(some centres undefined)", "values": [{"measurement": "degraded at 72 h", "setting": "[1]", "value": "< 10", "unit": "%"}, {"measurement": "Activity", "setting": "[2]", "value": "Not Active"}]}
{"smiles": "N[C@@H](Cc1ccccc1)C(=O)N[C@@H]1CCOP(=O)(N(CCCl)CCCl)N1", "note": "(some centres undefined)", "values": [{"measurement": "degraded at 72 h", "setting": "[1]", "value": "< 10", "unit": "%"}, {"measurement": "Activity", "setting": "[2]", "value": "Not Active"}]}
{"smiles": "O=C(N[C@@H](Cc1ccccc1)C(=O)N[C@@H]1CCOP(=O)(N(CCCl)CCCl)N1)OCc1ccccc1", "note": "(some centres undefined)", "values": [{"measurement": "Activity", "setting": "[2]", "value": "Active"}, {"measurement": "half-life", "setting": "[3]; alpha-chymotrypsin", "value": "> 12", "unit": "h"}]}
{"smiles": "O=C(N[C@@H](Cc1ccccc1)C(=O)N[C@H]1CCOP(=O)(N(CCCl)CCCl)N1)OCc1ccccc1", "note": "(stereo in doubt; cis)", "values": [{"measurement": "Activity", "setting": "[2]", "value": "Active"}, {"measurement": "t1/2", "setting": "[3]", "value": 0.333, "unit": "h"}]}
{"smiles": "O=C(N[C@@H](Cc1ccccc1)C(=O)N[C@H]1CCOP(=O)(N(CCCl)CCCl)N1)OCc1ccccc1", "note": "(stereo in doubt; trans)", "values": [{"measurement": "t1/2", "setting": "[3]", "value": 8.9, "unit": "h"}]}
